Legend:
ventral prostate weight = experiment: Subcutaneous androgenic potency, ventral prostate weight assay in orchidectomized immature rats (injection daily for seven days); format: in vivo, Sprague-Dawley rats
Description: (§1) Immature (about 21-day-old) Sprague-Dawley rats were orchidectomized under anesthesia, and randomly assignee to groups of ten animals for each dose level of the active undergoing testing. Each active was dissolved in 10% ethanol/sesame oil and administered by gavage (oral) or subcutaneous injection each day for seven days beginning on the date of the orchidectomy. The animals were sacrificed 24 hours after the last dose, and the ventral prostate and seminal vesicles were excised, cleaned of fat and connective tissue, blotted on moist filter paper and weighed to the nearest 0.1 mg. Regression analysis was performed by conventional methods using a PROPHET data management system. Ventral prostate weight was used as the endpoint because it is the sensitive organ to androgenic stimulation.
as §1, with “by” for “by gavage (oral) or”, “mg. See, e.g., Hershberger, L. et al, Myotrophic Activity of 19-nortestosterone And Other Steroids Determined By Modified Levator And Muscle Method, Proc. Soc. Exptl. Bid. Med. 83 175–180 (1953).” for “mg.”, “system. See, e.g., Bliss, C., The Statistics of Bioassay (Academic Press, New York, 1952); Hollister, C., Nucleic Acids Res. 16 1873–75 (1988).” for “system.”
Immature (about 22-day-old) Sprague-Dawley male rats were orchidectomized under anesthesia, and randomly assignee to groups of ten animals for each dose level of the active undergoing testing. […] Illumination was controlled for 14 hour periods of light and 10 hours of darkness.
Each active was administered by subcutaneous injection of 0.6 mg of test material in aqueous suspending vehicle (ASV) and/or an oily vehicle (10% ethanol/sesame oil) on the day of surgery. Testosterone enanthate in sesame oil was used as a standard. The ventral prostate and seminal vesicles were excised, cleaned of fat and connective tissue, blotted on moist filter paper and weighed to the nearest 0.1 mg. Regression analysis was performed by conventional methods using a PROPHET data management system. Ventral prostate weight was used as the endpoint because it is the sensitive organ to androgenic stimulation.

[1] = Serum levels of the free alcohol after single subcutaneous injection of ester; format: in vivo, Sprague-Dawley rats; conditions: single subcutaneous 0.6 mg suspended in aqueous carrier; 10 week observation period, FIG. 10
Description: Immature (about 21-day-old) Sprague-Dawley rats were orchidectomized under anesthesia, and randomly assignee to groups of 40 or more. Animals received a single subcutaneous injection of 0.6 mg of each ester in 0.2 ml of an aqueous suspending carrier and/or oily carrier (10% ethanol/90% sesame oil or ethyl oleate) on the date of the orchidectomy. In cases where the ester was not solid at room temperature, 10% ethanol/sesame oil or ethyl oleate was used as the carrier. In this example, the carrier used to provide the aqueous suspension was formulated as follows: 1 g benzyl alcohol, 0.5 g sodium carboxylethyl cellulose 50, 0.376 g disodium hydrogen phosphate dihydrate, 1.495 g sodium dihydrogen phosphate dihydrate, with water for injection (WFI) being added to bring volume of the carrier up to 100 ml.

CCCC[C@H]1CC[C@H](C(=O)O[C@H]2CC[C@H]3[C@H]4[C@H]([C@@H](C)C[C@]23C)[C@H]2CCC(=O)C=C2C[C@H]4C)CC1 (relative stereo) [Compound I, 7α,11β-Dimethyl-17β-hydroxy-4-estren-3-one 17β-trans-4-n-butylcyclohexane carboxylate]
activity after subcutaneous administration (in words) (ventral prostate weight; subcutaneous injection daily for 7 days in 10% ethanol/sesame oil, ventral prostate weight): relatively weak activity | Androgenic Potency (activity of corresponding alcohol) (ventral prostate weight; ventral prostate weight assay following subcutaneous administration, alcohol of G = 1.0 (assigned), value is for the free alcohol of the listed ester): 19.3 | serum levels of the free alcohol (7α,11β-dimethyl-19-nortestosterone) [1]: highest levels of the free alcohol

CCCCCCCCCCC(=O)O[C@H]1CC[C@H]2[C@H]3[C@H]([C@@H](C)C[C@]12C)[C@H]1CCC(=O)C=C1C[C@H]3C [Compound II, 7α,11β-dimethyl-17β-hydroxyestr-4-en-3-one 17-undecanoate]
subcutaneous androgenic activity relative to testosterone (ventral prostate weight; subcutaneous injection daily for 7 days in 10% ethanol/sesame oil (oily carrier), ventral prostate weight): 0.52 times

From US7196074B2, “Methods of making, using and pharmaceutical formulations comprising 7α, 11β-dimethyl-17β-hydroxyestra-4, 14-dien-3-one and 17 esters thereof” (The United States of America as represented by the …, priority 2000, dated 2007)
